Data on 13 compounds can be found in PMC4102417 (PLoS Neglected Tropical Diseases, 2014).

Data set [1] has as its system T. cruzi (Tulahuen strain). The data set is described as follows: microbe, parasite or virus in culture. The class given is cell-based, Trypanosoma cruzi. To be noted: for activity at 10 µM: Table S2, read-out: T. cruzi % growth @ 10 uM (Amastigotes); for EC50: read-out: T. cruzi EC50. The procedure, abridged:
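Tulahuen parasites expressing beta-galactosidase were added (1×10^4 trypomastigotes/well) to 3T3 fibroblasts plated 24 h earlier, 4 h before compound (10 µM final).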

The nature of data set [2]: in vitro. The class given is cell-based, murine. To be noted: mouse.
For data set [3], the system named is 3T3 fibroblast cells. The data set is described as follows: cells. In kind it is cell-based, murine. To be noted: for activity at 10 µM: Mus musculus, NIH3T3, 72 h, Table S2, read-out: Mammalian (3T3) cell % growth at 10 uM; for CC50: 3T3 fibroblasts, 72 hours, separate assays separated by semicolons, read-out: Mammalian cell CC50.
For data set [4], the system named is T. cruzi amastigotes. Nature of the data set: Combination screen of drug pairs at EC25. The class given is cell-based, Trypanosoma cruzi. The note with it: at EC25, alone or in combination. How it is done:
[…] compounds were selected for testing in combinations. All two-way combinations were tested (300 experiments). First, EC25 concentrations were determined for the individual compounds against T. cruzi amastigotes as described above. To test for synergy, compounds were evaluated in quadruplicate individually at the experimentally determined EC25, and in combination with other compounds at each respective EC25 concentration (further explained in the Discussion section). For inclusion in downstream analysis, each individual compound in a pair was required to inhibit 25±10% of growth in positive control (untreated) wells. If not in this range, the experiment was repeated. The measured growth of T. cruzi amastigotes was compared to the predicted effect of the combination as follows. Assuming a simple additive effect, the predicted inhibition of the drug pairs was expected to be the product of the percent-growths of each compound when tested alone. For example, if compound A gave 75% growth of the control and compound B gave 80% of the control growth, then the combination would be predicted to be 60% (i.e., 75%×80% = 60%).
Cells in green indicate a greater effect than predicted (“synergism”) and the squares in red indicate a lesser effect than predicated (“antagonism”).

The test system of data set [5] is T. cruzi (Tulahuen strain). The data set is described as follows: Mouse model of acute T. cruzi infection. In kind it is in vivo, BALB/c mice. To be noted: oral gavage days 7-11 post-infection, doses of Table 5. On the procedure: Age 8–10 week-old BALB/c female mice were obtained from Harlan Laboratories. Mice were infected with 1×10^4 tissue culture derived wild-type trypomastigotes of the Tulahuen strain by subcutaneous injection on day 0. They were administered test drugs in groups of five by oral gavage on days 7–11. All drugs were dissolved in vehicle composed of sodium carboxymethylcellulose 0.5% w/v, benzyl alcohol 0.5% v/v, Tween 80 0.4% v/v diluted in 0.9% aqueous NaCl solution. Parasitemia was quantified by examining tail blood specimens at times points indicated in Figures 2, 3, S4, and S5 as previously described.
Selected drugs identified in the above screens were tested alone or in combination in the mouse model of T. cruzi infection. In the first experiment, we focused on posaconazole and benznidazole because of their advanced clinical status for treating Chagas disease. Since benznidazole and posaconazole are known to have curative activity as monotherapies, we used sub-curative doses so that additive or synergistic interactions could be detected when used in combinations. The other drugs were administered at doses described in the literature for treating mice. Briefly, mice were gavaged once or twice daily with a given drug or combination on days 7–11 post-infection. We conducted a second experiment (Figure 3) examining the same drugs with the purpose of confirming and expanding upon the initial results shown in Figure 2.

In data set [6] the test system is T. brucei. The note with it: cited from earlier work.
Setting [7] is: Trypanosoma cruzi, TULAHUEN, Fibroblast, 120 h.
[8] abbreviates: Trypanosoma cruzi, TULAHUEN, Fibroblast, 120 h, intracellular amastigotes, 5 days, separate assays separated by semicolons.
Setting [9] is: average mammalian cell CC50 divided by average T. cruzi EC50.
[10] abbreviates: intracellular amastigotes, 5 days, separate assays separated by semicolons.
The mark [11] stands for this setting: 3T3 fibroblasts, 72 hours, separate assays separated by semicolons, read-out: Mammalian cell CC50.

“Also recorded” adds a separate entry of the source. Where two headings read alike, the source gives them in different places. A value given as a limit tells only on which side of the number the result lay.

`Clc1ccc(C(OCCN2CCCCC2)c2ccccc2)cc1` (stereo not shown) [Cloperastine, 1-{2-[(4-chlorophenyl)(phenyl)methoxy]ethyl}piperidine]: the activity at 10 µM in data set [1] (setting [7]) worked out at 1.2%; in data set [3], 100%. In addition, the EC50 in data set [1] (setting [8]) was determined as 5.8 µM; in data set [1] (setting [10]), 5.6 µM. Moreover, in data set [1] (setting [9]), the Selectivity index was found to be 3.8. In addition, in data set [2] (setting [11]), the CC50 was 21400 nM. For the same compound, the “% of normal growth” value in data set [4] amounted to 79%.

For the compound `Cl.OC(c1cc(C(F)(F)F)nc2c(C(F)(F)F)cccc12)C1CCCCN1` (stereo not shown) [Mefloquine, [2,8-bis(trifluoromethyl)quinolin-4-yl](piperidin-2-yl)methanol hydrochloride], the activity at 10 µM in data set [1] (setting [7]) amounted to 2.6%; in data set [3], 94.7%. In data set [1] (setting [8]), the EC50 turned out to be 6.1 µM. The compound further yielded a Selectivity index in data set [1] (setting [9]) of 2.0. For the same compound, the CC50 in data set [2] (setting [11]) is 12100 nM.

Consider `CCOC(=O)C1=C(COCCN)NC(C)=C(C(=O)OC)C1c1ccccc1Cl.O=S(=O)(O)c1ccccc1` (stereo not shown) [Amlodipine, 3-ethyl 5-methyl 2-[(2-aminoethoxy)methyl]-4-(2-chlorophenyl)-6-methyl-1,4-dihydropyridine-3,5-dicarboxylate; benzenesulfonic acid], for which the Selectivity index in data set [1] came out at 11.8. Further, the activity at 10 µM is 13.3% in data set [1] (setting [7]) and 100% in data set [3]. Also, the EC50 in data set [1] (setting [8]) was found to be 1.1 µM. The same compound showed a CC50 in data set [2] (Mammalian cell CC50 (nM)) of 13000 nM. Besides, the parasitemia result in data set [5] is on record as “no differences compared to the vehicle treated mice; also recorded: slight effects”.

As to `O=C(Cn1ccnc1[N+](=O)[O-])NCc1ccccc1` [Benznidazole], the EC50 is 0.65 µM in data set [1] (setting [8]) and 0.6 µM in data set [1] (setting [10]). Moreover, the Selectivity index in data set [1] (setting [9]) is given as above 40. Also, the CC50 in data set [2] (setting [11]) is above 25000 nM. The parasitemia result in data set [5] was “some attenuation of parasitemia”.

As for `CCc1nc(N)nc(N)c1-c1ccc(Cl)cc1` [Pyrimethamine, 5-(4-chlorophenyl)-6-ethylpyrimidine-2,4-diamine], the activity at 10 µM was 24.2% in data set [1] (setting [7]) and 97.6% in data set [3]. In addition, the EC50 in data set [1] (setting [8]) was 3.82 µM; in data set [1] (Trypanosoma cruzi, TULAHUEN, Fibroblast), 3.8 µM; in data set [6], 17 µM. In data set [1] (setting [9]), this compound returned a Selectivity index of 7.5. The CC50 in data set [2] (setting [11]) came to 28500 nM.

In the case of `Oc1ncnc2[nH]ncc12` [Allopurinol], the Selectivity index in data set [1] is reported as above 17.9. Further, in data set [1] (setting [8]), the EC50 came out at 2.8 µM. Moreover, the CC50 in data set [2] (setting [11]) was above 50000 nM. For the same compound, the parasitemia entry in data set [5] was “slight effects”.

`Cl.Fc1ccc(C2CCNCC2COc2ccc3c(c2)OCO3)cc1` (stereo not shown) [Paroxetine, 3-[(2H-1,3-benzodioxol-5-yloxy)methyl]-4-(4-fluorophenyl)piperidine hydrochloride] returned a Selectivity index in data set [1] of 4.2. The activity at 10 µM in data set [1] (setting [7]) was 6.8%; in data set [3], 100%. Also, the EC50 in data set [1] (setting [8]) turned out to be 3.3 µM; in data set [1] (setting [10]), 5.6 µM. Further, in data set [2] (Mammalian cell CC50 (nM)), the CC50 came to 18800 nM.

In turn, `Nc1nc(N)c2nc(-c3ccccc3)c(N)nc2n1` [Triamterene, 6-phenylpteridine-2,4,7-triamine] displayed a Selectivity index in data set [1] of 11.4. Moreover, the activity at 10 µM in data set [1] (setting [7]) was 17.3%; in data set [3], 72.7%. Moreover, the EC50 in data set [1] (setting [8]) was determined as 1.66 µM; in data set [1] (Trypanosoma cruzi, TULAHUEN, Fibroblast, Table S2, amastigotes) it was 18.9 µM. The CC50 in data set [2] (setting [11]) is 23000 nM; in data set [3], 14.8 µM. Moreover, in data set [6] (no reference given), the “activity against T. brucei” value is 48 µM.

On to `CN1CCCC1CCOC(C)(c1ccccc1)c1ccc(Cl)cc1` (stereo not shown) [Clemastine, 2-{2-[1-(4-chlorophenyl)-1-phenylethoxy]ethyl}-1-methylpyrrolidine], for which the activity at 10 µM in data set [3] was 93.2%. Also, the “% of normal growth” value in data set [4] amounted to 74%. The parasitemia entry in data set [5] was “no differences compared to the vehicle treated mice”.

For the compound `CN(C)c1ccc(O)c2c1CC1CC3C(N(C)C)C(O)=C(C(N)=O)C(=O)C3(O)C(O)=C1C2=O.Cl` (stereo not shown) [Minocycline, 4,7-bis(dimethylamino)-3,10,12,12a-tetrahydroxy-1,11-dioxo-1,4,4a,5,5a,6,11,12a-octahydrotetracene-2-carboxamide hydrochloride], the Selectivity index in data set [1] is given as above 5.1. For the same compound, the activity at 10 µM stood at 10.2% in data set [1] (setting [7]) and 83.2% in data set [3]. Moreover, the EC50 in data set [1] (setting [8]) amounted to 9.8 µM. Besides, in data set [2] (setting [11]), the CC50 was above 50000 nM.

For the compound `CC[C@@H]([C@H](C)O)n1ncn(-c2ccc(N3CCN(c4ccc(OC[C@@H]5CO[C@@](Cn6cncn6)(c6ccc(F)cc6F)C5)cc4)CC3)cc2)c1=O` [Posaconazole], the parasitemia result in data set [5] was “some attenuation of parasitemia”.

`CN(C)CC/C=C1/c2ccccc2Sc2ccc(Cl)cc21` [Chlorprothixene, {3-[(9Z)-2-chloro-9H-thioxanthen-9-ylidene]propyl}dimethylamine] gave a Selectivity index in data set [1] of 5.2. Further, the activity at 10 µM in data set [1] (setting [7]) was determined as 1.8%; in data set [3], 97.1%. In addition, the EC50 worked out at 2.35 µM in data set [1] (setting [8]) and 2.6 µM in data set [1] (setting [10]). In addition, the CC50 in data set [2] (setting [11]) was found to be 12900 nM.

On to `CSc1ccc2c(c1)N(CCC1CCCCN1C)c1ccccc1S2` (stereo not shown) [Thioridazine, 10-[2-(1-methylpiperidin-2-yl)ethyl]-2-(methylsulfanyl)-10H-phenothiazine], for which the values for the activity at 10 µM in data set [1] (setting [7]) and in data set [3] were 19.1% and 45.7%, respectively. Moreover, the CC50 in data set [2] (setting [11]) is 6200 nM; in data set [3], 8.66 µM.

The EC50 is the concentration giving half of the maximal effect. One may read the CC50 as the concentration at which the toxic effect on the cells reaches its halfway point.
